# Reference: patent publication US20050244823A1, “Novel epitopes for celiac disease and autoimmune diseases, methods for detecting those and novel non-antigenic food compounds” (Academisch Ziekenhuis Leiden, priority 2002, published 2005)
# Where no end group is shown, it is not given here. [ ]: non-standard residue; d: D form. Gln(vinylogous ester) = glutamine whose side-chain carboxamide is replaced by a vinylogous ester electrophilic trap (CO2Et)
# Assays:
# [1] = tested on: gluten specific T cell lines; assay: T cell proliferation assay with gluten specific T cell lines; assay type: cell-based, human; settings: T cell line from small intestinal biopsy of celiac disease patient; antigen 1-10 μg/ml; positive = Stimulation Index>3
# Protocol: T cell clones T cell lines. Gluten specific T cell lines were generated from small intestinal biopsies of celiac disease patients as described before (van de Wal, 1998a).
# T cell proliferation assays. Proliferation assays were performed in duplicate in 150 μl RPMI1640 (Gibco, Breda, NL) supplemented with 10% human serum in 96-well flat-bottomed plates (Falcon) using 10^4 T cells stimulated with 10^5 irradiated PBMCs (3000 RAD) in the presence or absence of antigen (1-10 μg/ml). After 48 hours at 37° C., cultures were pulsed with 0.5 μCi of ^3H-thymidine and harvested 18 hours thereafter as described previously (van de Wal, 1998b).
# [2] = target: T1, tissue transglutaminase (tTG) (Cavia cutleri, UniProt P08587); assay: tTG treatment of synthetic gluten peptides, deamidation determined by mass spectrometry; assay type: biochemical; settings: for deamidation of glutamine residues by tTG: peptide 500 μg/ml, tTG 100 μg/ml, 37° C., 4 h minimum, pH 6.5
# T1 construct: purchased Sigma, Zwijndrecht, NL T-5398
# T1 sequence (P08587 2-690 limits assumed): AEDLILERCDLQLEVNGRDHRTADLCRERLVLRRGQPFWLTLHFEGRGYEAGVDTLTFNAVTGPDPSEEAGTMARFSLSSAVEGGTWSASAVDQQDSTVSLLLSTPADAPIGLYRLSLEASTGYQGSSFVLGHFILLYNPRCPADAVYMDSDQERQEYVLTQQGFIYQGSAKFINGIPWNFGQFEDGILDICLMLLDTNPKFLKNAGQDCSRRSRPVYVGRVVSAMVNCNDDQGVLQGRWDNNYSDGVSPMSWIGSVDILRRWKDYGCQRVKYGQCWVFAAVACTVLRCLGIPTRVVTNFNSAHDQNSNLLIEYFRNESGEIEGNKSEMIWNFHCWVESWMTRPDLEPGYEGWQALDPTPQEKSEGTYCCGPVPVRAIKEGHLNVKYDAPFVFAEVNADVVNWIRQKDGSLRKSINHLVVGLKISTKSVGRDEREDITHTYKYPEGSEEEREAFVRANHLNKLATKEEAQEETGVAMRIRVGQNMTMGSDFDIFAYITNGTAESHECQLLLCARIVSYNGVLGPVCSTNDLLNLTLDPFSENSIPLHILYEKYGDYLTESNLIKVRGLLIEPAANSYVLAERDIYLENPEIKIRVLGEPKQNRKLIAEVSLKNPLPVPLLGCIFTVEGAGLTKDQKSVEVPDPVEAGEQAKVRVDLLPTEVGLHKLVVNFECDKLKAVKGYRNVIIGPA
# Protocol: (§1) Peptides and tTG treatment. Peptides were synthesised by standard Fmoc chemistry on a multiple peptide synthesizer (SyroII, MultiSynTech GmbH, Witten, Germany). Integrity of synthetic peptides was checked by rpHPLC and mass spectrometry. Tissue transglutaminase (tTG) treatment was performed by incubating the peptides (500 μg/ml) with the enzyme (100 μg/ml, Sigma, Zwijndrecht, NL; T-5398) at 37° C. for 4 h minimum, in 50 mM triethylamine-acetate pH 6.5, 2 mM CaCl2.
# (§2) Mass spectrometry. Electrospray ionisation mass spectrometry was performed on the synthetic gluten peptides before and after tTG treatment, using a Q-TOF hybrid mass spectrometer (Micromass, Manchester, UK). Precursor ions were selected with the quadrupole window set to 3 Da and fragments were collected with high efficiency with the orthogonal time of flight mass spectrometer. The collision gas applied was argon (pressure 4×10^−5 mbar) and the collision voltage approximately 30 V. Deamidation of glutamine residues in synthetic gluten peptides was determined by mass spectrometric analysis as described previously (van de Wal, 1998a). Deamidation of a glutamine residue results in an increase of 1 Da. These conversions were assigned to particular glutamine residues by comparison of the fragmentation spectra of tTG treated and non-treated peptides.
# [3] = tested on: gluten specific T cell lines; settings: Arentz-Hansen 2000; Anderson 2000; cited from earlier work
# [4] = target: T1, tissue transglutaminase (tTG); assay: Inhibition of tTG induced deamidation of a substrate gluten peptide, mass spectrometric analysis; assay type: biochemical
# Protocol: as §1, §2
# [5] = target: T1, tissue transglutaminase (tTG); settings: earlier publications (van de Wal 1998a; Arentz-Hansen 2000); cited from earlier work
# [6] = tTG-treated synthetic gluten peptide, mass spectrometry
substance,measurement,setting,value
QQPYPQQPQQPFPQ [gluten-derived peptide],stimulation of gluten specific T cell lines (proliferation),[1],stimulate gluten specific T cell lines
PFPQPQQPQQPFPQ [gluten-derived peptide],stimulation of gluten specific T cell lines (proliferation),[1],stimulate gluten specific T cell lines
QQPFPQQPQQPFPQ [gluten-derived peptide],stimulation of gluten specific T cell lines (proliferation),[1],stimulate gluten specific T cell lines
PFPQTQQPQQPFPQ [gluten-derived peptide],stimulation of gluten specific T cell lines (proliferation),[1],stimulate gluten specific T cell lines
PFSQQQQPV,deamidation of glutamine residues by tTG,[2],specifically and efficiently deamidated
PFPQSQQPQQPFPQ [gluten-derived peptide],stimulation of gluten specific T cell lines (proliferation),[1],stimulate gluten specific T cell lines
"9: gluten peptide FPQHCNYQ[Q]QPQTFPQPF; [Q] = image character, presumably deamidated Q [Peptide 9]",Rules QP ↓ (share of Q residues following the rule: Q preceding P not deamidated),[2]; [6],100%
same,Rules QXP ↑ (share of Q residues following the rule: P at Q+2 allows deamidation),[2]; [6],100%
same,Rules QXXP ↓ (share of Q residues following the rule: P at Q+3 inhibits deamidation),[2]; [6],100%
QLPFPQQPQQPFPQ [gluten-derived peptide],stimulation of gluten specific T cell lines (proliferation),[1],stimulate gluten specific T cell lines
QLQPFPQPQLPY,T cell stimulatory activity in celiac disease patients,[3],immunodominant
"first-generation inhibitor: biotinylated QPQLPYQ in which the carboxamide of glutamine at position 3 is replaced by a vinylogous ester electrophilic trap (CO2Et, FIG. 3) (QP[Gln(vinylogous ester)]LPYQ; also: biotinylated)",enzyme activity,[4]; 0.3 molar ratio of enzyme to inhibitor,completely abolished
same,inhibition of deamidation of a substrate peptide,[4]; inhibitor mixed with the enzyme in an equimolar ratio,over 50%
PSGQ208GSFQPSQQ216NPQA,deamidation of glutamine residues by tTG / tTG substrate,[5],"Q208 and Q216 are deamidated by tTG, whereas positions Q212, Q215, and Q219 are not"
PFPQLQQPQQPFPQ [gluten-derived peptide],stimulation of gluten specific T cell lines (proliferation),[1],stimulate gluten specific T cell lines
QFPQTQQPQQPFPQ [gluten-derived peptide],stimulation of gluten specific T cell lines (proliferation),[1],stimulate gluten specific T cell lines
LQQPQQ6PQFQPQQQF [Peptide 20],Rules QP ↓ (share of Q residues following the rule: Q preceding P not deamidated),[2]; [6],100%
same,Rules QXP ↑ (share of Q residues following the rule: P at Q+2 allows deamidation),[2]; [6],50%
same,Rules QXXF ↑ (share of Q residues following the rule: bulky/hydrophobic residue at Q+3 allows deamidation),[2]; [6],50%^
same,Rules QXXP ↓ (share of Q residues following the rule: P at Q+3 inhibits deamidation),[2]; [6],100%
QPQLPYPQ,deamidation of glutamine residues by tTG / tTG substrate,[5],known to be a tTG substrate
PFSQQQQLVL,deamidation of glutamine residues by tTG,[2],all Q-residues are deamidated
PSGQ208GSFQPSQQ216N,deamidation of glutamine residues by tTG,[2],only the Q208 is deamidated
